Reference: paper PMC4892293 (Drug Design, Development and Therapy, 2016)

Target: T1, human recombinant PPARγ (Homo sapiens, UniProt P37231)
T1 sequence (P37231 1-505): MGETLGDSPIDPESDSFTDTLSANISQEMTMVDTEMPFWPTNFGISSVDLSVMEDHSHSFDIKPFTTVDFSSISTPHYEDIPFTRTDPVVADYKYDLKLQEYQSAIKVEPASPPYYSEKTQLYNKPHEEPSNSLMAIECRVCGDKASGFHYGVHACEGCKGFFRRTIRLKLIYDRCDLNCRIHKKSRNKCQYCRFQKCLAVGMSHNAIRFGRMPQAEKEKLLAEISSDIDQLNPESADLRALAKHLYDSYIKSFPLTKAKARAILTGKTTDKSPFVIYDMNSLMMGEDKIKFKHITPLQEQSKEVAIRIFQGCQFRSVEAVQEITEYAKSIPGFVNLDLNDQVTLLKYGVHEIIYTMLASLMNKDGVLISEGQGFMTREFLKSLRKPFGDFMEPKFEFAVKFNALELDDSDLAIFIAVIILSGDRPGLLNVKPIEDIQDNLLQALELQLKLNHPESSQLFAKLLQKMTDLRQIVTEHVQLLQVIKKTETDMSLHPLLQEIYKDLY
Assay: FP-based PPARγ ligand screening assay
Type: binding
Conditions: concentration of 10.0 μM; Figure 2

4-((5-(4-Chlorophenyl)-4-methylthiazol-2-yl)amino)-4-oxobutanoic acid [Compound 4f]
agonistic activity in primary FP screening: unable to promote agonistic activity
